Square brackets hold non-standard residues; d marks the D form. Ends that are not written are not given here.
Tests used:
Format in all cases: cell-based
[1] = test system: MCF-10AER/cSrc; test: Transformation (spiked shape) of cells after 4-hydroxy-tamoxifen, phase contrast imaging; settings: after 4-OHT (1 μM); either in single dose or every day
Protocol: (§1) FIG. 1A. REDOX effects promoted by peptidyl di-copper complex. (A) Oxidized (λex=[…]) and reduced (λex=[…]) roGFP2 signals 30 minutes after exposure to the metallocomplex (Day 1) and at the final of the experiment (Day 5) were measured and the oxidized/reduced ratio was obtained using ImageJ (shown as histogram). FIG. 1B. Representative images of MCF-10AER/cSrc transformation after treatment with 4-hydroxy-tamoxifen (1 μM) registered by Lionheart (phase contrast). FIG. 1C. Western blot analysis of E-Cadherin (E-Cad), Fibronectin (FN1), and Vimentin (Vim) in MCF-10AER/cSrc transformed cells (5 days after 4-OHT treatment). CATm1-peptidyl di-copper complex, as previously reported, DNK01-peptidyl di-copper complex with D-amino acids, sd-single dose, cd-daily doses.
Another important observation was the delayed transformation of the cells in the system. After exposure to 4-OHT, cells acquired a spiked shape as soon as day 1 to day 2 (FIG. 1B). This process was delayed for two days when the cells were exposed to Cu^2+-CATm1 or Cu^2+-DNK01 either in single dose or every day.

[2] = test system: MCF-10A ER/cSrc/NLS-Orp1-roGFP2 cells; test: Nuclear ROS by NLS-roGFP2-Orp1 oxidized/reduced ratio after 4-OHT exposure; settings: peptide 250 μM, CuSO4 500 μM; for ROS levels: day 5
Protocol: as §1
Lyophilized peptides were resuspended in MOPS buffer (30 mM, pH 7.5) to a concentration of 5 mM; a 50 mM copper solution was prepared in the same buffer. Both solutions were mixed in a 1:2 (peptide:copper) concentration 30 minutes before applying them to the cell culture. The final concentration of the complex in the cell culture was peptide at 250 μM and CuSO4 at 500 μM. The culture was monitored by measuring the ratio I(405/525)/I(488/525) given by the NLS-roGFP2-Orp1.
Exposure to 4-hydroxytamoxifen (4-OHT) transforms MCF-10A ER/cSrc/NLS-Orp1-roGFP2 cells into a tumorous cell line due to the oxidation of the nuclear compartment. Experiments were conducted by measuring the nuclear ROS in these cells. Probe oxidation status was monitored for 5 days after exposure to 4-OHT (FIG. 1A). […] It was not sufficient to keep the ROS levels as low as on day 1. This was due to a disruption of the complex and accumulation of free copper in the media.

[3] = test system: Fibronectin (FN1); test: Western blot of mesenchymal marker Fibronectin in transformed cells, day 5; settings: 4-OHT treated only
Protocol: as §1
(§2) Experiments were conducted during development of embodiments herein to measure the expression of EMT markers in this system at the end of the experiment (day 5). […] But in cells exposed only to 4-OHT, the levels dropped to almost 50% in comparison to the control cells. In the same FIGURE, the mesenchymal markers Vimentin and Fibronectin were also probed by western blot. […] Transformed cells, 4-OHT treated, expressed 3 times compared to control, and cells also treated with peptides in single doses.

[4] = test system: E-Cadherin (E-Cad); test: Western blot of epithelial marker E-cadherin in transformed cells, day 5; settings: cells exposed only to 4-OHT
Protocol: as §1, §2

Row | Substance | delay of transformation of the cells (spiked shape) [1] | levels of nuclear oxidants ([2]; day 1, right after exposure (30 minutes), 4-OHT treated cells) | ROS levels ([2]; presented everyday with fresh media) | ROS levels ([2]; single dose in day 1) | Fibronectin expression compared to control [3] [times] | E-cadherin levels in comparison to the control cells [4] [%]
1 | dPdHdYdKdHdRdLdH ([dP][dH][dY][dK][dH][dR][dL][dH]; also: di-copper complex) [DNK01, peptidyl di-copper complex with D-amino acids] | two |  |  |  |  | 
2 | PHYKHRLH (also: di-copper complex) [CATm1, short peptidyl di-copper complex developed to mimic catalase, as previously reported] | two | lower levels of nuclear oxidants | keep the ROS in lower levels | ROS levels increase |  | 
3 | 4-hydroxytamoxifen [4-OHT] |  |  |  |  | 3 | ~50

Reference: patent US20240287477A1, “CATALASE MIMETIC PEPTIDES” (Northwestern University, priority 2023, published 2024)
